Test results from US5514814A, “Pyrrolinone-based compounds” (Trustees of the University of Pennsylvania, priority 1994, dated 1996).

molecular target: T1, HIV-1 protease (Human immunodeficiency virus type 1 group M subtype B, UniProt P12497); assay: Inhibition of purified HIV-1 protease (IC50); type: biochemical; details: HIV-1 protease purified generally according to Heimbach, et al.
T1 construct: HIV-1 protease purified generally according to Heimbach; made in house
Description: The extent to which the compounds of the invention for inhibit and prevent the spread of HIV-1 protease was determined generally according to the methods disclosed by Thompson, et al., J. Med. Chem. 1992, 35, 1685. IC50 and CIC95 values were determined using HIV-1 protease purified generally according to Heimbach, et al., Biochem. Biophys. Res. Commun. 1989, 164, 955.

SMILES | IC50
CC(C)C[C@@]1(C2=CN[C@@](Cc3ccccc3)(C[C@H](O)[C@H](Cc3ccccc3)NC(=O)O[C@H]3CCOC3)C2=O)NC=C([C@@H](Cc2ccccc2)C(=O)NC(C)(C)C)C1=O [(53)] | 3.3 nM
COC(=O)[C@H](Cc1ccccc1)C1=CN[C@@](CC(C)C)(C2=CN[C@@](Cc3ccccc3)(C[C@H](O)[C@H](Cc3ccccc3)NC(=O)O[C@H]3CCOC3)C2=O)C1=O [(58)] | 2 nM
CC(C)C[C@@]1(C2=CN[C@@](Cc3ccccc3)(C[C@H](O)[C@H](Cc3ccccc3)NC(=O)OC(C)(C)C)C2=O)NC=C([C@@H](Cc2ccccc2)C(=O)NC(C)(C)C)C1=O [(54)] | 48 nM
CC(C)C[C@@]1(C2=CN[C@@](Cc3ccccc3)(C[C@H](O)[C@H](Cc3ccccc3)NC(=O)O[C@H]3CCOC3)C2=O)NC=C([C@@H](Cc2ccccc2)C(N)=O)C1=O [(49)] | 1.3 nM
CC(C)CC1(C2=CNC(Cc3ccccc3)(CC(O)C(Cc3ccccc3)NC(=O)OC(C)(C)C)C2=O)NC=C(C(Cc2ccccc2)C(N)=O)C1=O (stereo not shown) [(11)] | 10 nM
O=C(N[C@@H](Cc1ccccc1)[C@@H](O)C[C@]1(Cc2ccccc2)NC=C([C@H]2c3ccccc3C[C@H]2O)C1=O)O[C@H]1CCOC1 [(67)] | 2 nM
CC(C)(C)OC(=O)N[C@@H](Cc1ccccc1)[C@@H](O)C[C@]1(Cc2ccccc2)NC=C([C@H]2c3ccccc3C[C@H]2O)C1=O [(68)] | 11.9 nM
COC(=O)[C@H](Cc1ccccc1)C1=CN[C@@](CC(C)C)(C2=CN[C@@](Cc3ccccc3)(C[C@H](O)[C@H](Cc3ccccc3)NC(=O)OC(C)(C)C)C2=O)C1=O [(59)] | 37 nM

system: renin; assay: Effective renin inhibitor at stated concentration; type: biochemical; details: not given

SMILES | found to act as an effective renin inhibitor at (concentration)
CC(C)=CCC1(Cc2ccccc2)NC=C(C(CC(C)C)C(=O)NC(CC2CCCCC2)C(O)C(O)CC(C)C)C1=O [Structure (10a), 5(S)-prenyl-(5-benzyl)pyrrolin-4-one-3!-2(R)-isobutylacetate-1-amino-1(S)-cyclohexylmethyl-2(R)3 3 (S)-dihydroxy-5-methylhexane!-amide] | 700 nM

molecular target: HIV1 (Human immunodeficiency virus type 1 (NEW YORK-5 ISOLATE), UniProt P12497); assay: Effective HIV1 inhibitor at stated concentration; type: biochemical; details: not given

SMILES | found to act as effective HIV1 inhibitor at (concentration)
CC(C)=CCC1(Cc2ccccc2)NC=C(C2(CC(C)C)NC=C(C(CC3CCCCC3)C(O)C(O)CC(C)C)C2=O)C1=O (stereo not shown) [Structure (9a)] | 3.5 µM
